Key:
[1] = system: constipation-predominant IBS patients; settings: eight patients, 16 mg three times a week, eight weeks; cited from earlier work
[2] = system: opioid analgesia in postsurgical patients; settings: cited from earlier work; for Effect on analgesic potency of morphine: low-dose cotreatment with morphine, postsurgical patients, 24-hour test periods
patients with IBS = assay: Open clinical study of low dose naltrexone in patients with IBS (daily symptom diary, global self-assessment); format: in vivo, human
Procedure: An open study of low dose naltrexone administration in four (4) patients with IBS was initiated. The patients were evaluated for IBS, based on the Rome criteria. All patients were screened for other disorders or medications that could cause gastrointestinal symptoms of IBS. These included inflammatory bowel disease, cancer, lactose intolerance, and neurological disorders, as well as the use of narcotic medications. […] Each subject was fully informed of the benefits and possible side effects of the study and thereafter freely gave their consent to participate in the study.
Each patient maintained a daily diary of the symptoms prior to and during treatment with 1-3 mg/day of naltrexone. Each participant noted the following symptoms:
Patients were permitted to remain on medications other than anticholinergics and anti-diarrheal agents (i.e., fiber bulking agents or lactose enzyme replacement if needed).
Naltrexone (tradename Revia; 50 mg tablets; DuPont Merck) was purchased at a pharmacy. Single tablets were crushed and dissolved in 50 ml boiled distilled water, and stored unfrozen in a refrigerator. Each patient received 2 ml (2 mg) orally each morning with breakfast. Medication was prepared weekly and used for seven doses, with the remainder being discarded.

IBS patients = settings: 30 mg, three times daily; cited from earlier work
[3] = Patient A, after 24 months, 2.5-3.0 mg/day
[4] = Patient B, after 12 months, 1.5-2.3 mg/day
[5] = Patient D, after 9 months, 2.5-3.0 mg/day

In the case of `C=C1CCC2(O)C3Cc4ccc(OC5OC(C(=O)O)C(O)C(O)C5O)c5c4C2(CCN3CC2CC2)C1O5` (stereo not shown) [nalmefene glucuronide, Nalmefene glucuronide], the “Abdominal pain or bloating” value [1] is given as “did not reduce abdominal pain or bloating”, the Stool consistency [1] is given as “not improved” and the Stool frequency [1] is given as “increased stool frequency”. For the same compound, the Transit time [1] was “decreased transit time”.

In the case of `C=C1CC[C@@]2(O)[C@H]3Cc4ccc(O)c5c4[C@@]2(CCN3CC2CC2)[C@H]1O5` [nalmefene], the “Effect on morphine's analgesic potency” value ([2]; ca. 15 μg, IV) is listed as “markedly enhance morphine's analgesic potency”, the “Effect on opioid analgesia” value ([2]; doses of >0.5 mg) is listed as “markedly attenuate opioid analgesia” and the “Effect on analgesic potency of morphine” value [2] is listed as “markedly enhanced the analgesic potency of morphine”.

In the case of `C=CCN1CC[C@]23c4c5ccc(O)c4O[C@H]2C(=O)CC[C@@]3(O)[C@H]1C5` [naloxone], the “Effect on analgesic potency of morphine” value [2] is given as “markedly enhanced the analgesic potency of morphine”.

For `O=C1CC[C@@]2(O)[C@H]3Cc4ccc(O)c5c4[C@@]2(CCN3CC2CC2)[C@H]1O5` [naltrexone], the Abdominal cramping (patients with IBS; [3]) was “completely ceased”, the “Frequency of bowel actions” value (patients with IBS; [3]) was “returned to normal levels” and the Cramping abdominal pain (patients with IBS; Patient A, after nine months of treatment) was “no cramping abdominal pain”. For the same compound, the Stool frequency (patients with IBS; Patient A, after nine months of treatment, oral daily, before treatment about 4-8 times per day) was 1-2 formed bowel movements per day, the “Global improvement on the 0-4 scale” value (patients with IBS; Patient A, 0 = no observable change, 4 = marked and substantially improved) was 4 and the “Global improvement on the 0-4 scale” value (patients with IBS; Patient B) was 3. For the same compound, the “Frequency of bowel actions” value (patients with IBS; [4]) was “no change”, the “Reduction in abdominal cramping” value (patients with IBS; [4]) was 50% and the “Abdominal pain associated with cramping” value (patients with IBS; Patient B, after 75 days of treatment) was “total elimination of abdominal pain associated with cramping”. The Stool frequency (patients with IBS; Patient B, after 75 days of treatment, before treatment 10-12 diarrheal movements per day) was 2-4 bowel movements per day, the “Global improvement on the 0-4 scale” value (patients with IBS; Patient C) was 2.5 and the IBS symptoms (patients with IBS; Patient C, 24 month follow-up, diagnosed with fibromyalgia, 1-2 mg/day, stopped after 6 months) was “did not respond”. The “Abdominal pain associated with cramping” value (patients with IBS; Patient C, after 75 days of 2 mg/day) was “eliminated”, the “Frequency of loose bowel movements” value (patients with IBS; Patient C, after 75 days of 2 mg/day, before treatment 2-3 loose bowel movements daily) was “halved in frequency” and the “Global improvement on the 0-4 scale” value (patients with IBS; Patient D) was 2.5. For the same compound, the Decrease in cramping (patients with IBS; [5]) was 75%, the “Reduction in frequency of bowel actions” value (patients with IBS; [5]) was 20% and the “IBS symptoms after treatment was halted” value (patients with IBS; Patient D, low-dose treatment halted after 9 months) was “IBS symptoms returned”. The Abdominal cramping symptoms (patients with IBS; Patient D, upon initiation of low dose treatment, continued over 70 days) was “immediate relief of abdominal cramping symptoms”, the “Reduction in stool frequency” value (patients with IBS; Patient D, upon initiation, continued over 70 day treatment period, before treatment 7-10 unformed diarrheal movements per day) was 50% and the “IBS symptoms on every other day dosing schedule” value (patients with IBS; Patients A and C, dosing changed to every other day) was “IBS symptoms returned”. For the same compound, the Side effects (patients with IBS; four patients, 2 mg orally each morning) was “None of the four patients reported discernible side effects”.

In the case of fedotizine, the “Treatment of IBS” value (IBS patients) is given as “successful treatment”.
